# Laboratory results as given in US20250170127A1, “RE-SENSITIZING MULTIDRUG-RESISTANT (MDR) GRAM-NEGATIVE BACTERIA TO COLISTIN USING IONOPHORES” (The Regents of the University of Colorado, a body corporate, priority 2022, published 2025).
# Several values for one entry are separate records, joined by “and”; a condition that tells them apart may be missing. Equal values may be shown once.
# Key:
# [1] = test system: Salmonella Typhimurium AR-0635; assay: Colistin MIC in the absence or presence of RMA compound; format: cell-based; conditions: Salmonella Typhimurium AR-0635
# Text: (§1) To investigate the scope of the colistin-potentiation effect of compound 3, the present inventors screened a panel of MDR Gram-negative bacteria obtained from the CDC and FDA Antibiotic Resistance Bank. These include a variety of Enterobacteriaceae spp., such as E. coli AR-0346 and AR-0538, K. pneumoniae AR-0497, Salmonella Enteritidis AR-0496, and Salmonella Typhimurium AR-0635. These strains all express the mcr genes (e.g., mcr-1, mcr-2, and mcr-4) and are resistant to colistin with its MICs of 8-16 μg/mL (Table 2). […] The only exception is Salmonella Typhimurium AR-0635, which expresses mcr-4 gene. […]. […]. Furthermore, the present inventors also tested the activity of colistin in the presence or absence of 1 μg/mL compound 3 in a wild-type E. coli K-12. […] The MICs of compound 3 in all these strains were >64 μg/mL, the highest concentration tested.
# (§2) To evaluate the mammalian toxicity of these analogs, Applicants tested them in cell viability assay using human cervical adenocarcinoma HeLa cells. Their respective half maximal growth inhibition concentration (GI50) was calculated using KaleidaGraph. The selectivity index (SI) for each compound was also calculated as the ratio of their GI50 and MRC. […] Therefore, Applicants selected two bisanilino analogs, 7l and 7m, that bear chlorines at the meta- and para-positions, respectively, of the phenyl groups for further characterization studies. […]. […] Their mammalian toxicities were also evaluated, and SIs calculated. […] Applicants we next explored the scope of analogs 71 and 7m their colistin-potentiating activity in 8 different MDR Gram negative bacteria with diverse genetic backgrounds and resistance mechanisms (Table 7). All strains were obtained from CDC and FDA Antibiotic Resistance Bank. For example, E. coli AR-0493 and K. pneumoniae AR-0497 carry the plasmid that contains the most prevalent mcr-1 gene. E. coli AR-0538, Salmonella Typhimurium AR-0539 and AR-0635 contain the mcr-2, 3, and 4 genes, respectively. These genes encode the phosphoethanolamine transferase, which was originated form the chromosome of A. baumannii, such as AR-0310. […]. A. baumannii AR-0310 appears more sensitive to these two compounds and the MICs of colistin was reduced to 0.25 μg/mL.
# (§3) General Methods. MDR strains E. coli AR-0493, AR-0346, and AR-0538, Salmonella Enteritidis AR-0496, Salmonella Typhimurium AR-0635, K. pneumoniae AR-0497, A. baumannii AR-0300 and AR-0310 were all obtained from the CDC & FDA Antibiotic Resistance Isolate Bank. E. coli K-12 was a gift from the Copley lab (Department of MCD Biology, University of Colorado Boulder). HeLa cells were purchased from the ATCC. All bacterial strains were grown on trypticase soy agar supplemented with 5% sheep blood (BAP). Bacteria were then cultured in Luria-Bertani (LB) medium at 35° C. until they achieve the log phase before screening or antimicrobial testing using CAMHB media. MIC, MRC, and checkerboard analyses and mammalian growth inhibition analyses in Hela cells were performed as described previously. More details are given in Supporting information.
# [2] = test system: K. pneumoniae AR-0497; assay: as above; format: cell-based; conditions: K. pneumoniae AR-0497
# Text: as §1, §2, §3
# [3] = test system: E. coli AR-0538; assay: as above; format: cell-based; conditions: E. coli AR-0538
# Text: as §1, §2, §3
# [4] = test system: A. baumannii AR-0310; assay: as above; format: cell-based
# Text: as §1, §2, §3
# [5] = test system: E. coli AR-0493; assay: as above; format: cell-based; conditions: E. coli AR-0493
# Text: as §1, §2, §3
# [6] = test system: A. baumannii AR-0300; assay: as above; format: cell-based
# Text: as §1, §3
# [7] = test system: Salmonella Enteritidis AR-0496; assay: as above; format: cell-based; conditions: Salmonella Enteritidis AR-0496
# Text: as §1, §3
# [8] = test system: E. coli K-12; assay: as above; format: cell-based; conditions: in the presence of 1 μg/mL of compound 3; E. coli K-12
# Text: as §1, §3
# [9] = test system: E. coli AR-0346; assay: as above; format: cell-based; conditions: E. coli AR-0346
# Text: as §1, §3
# [10] = test system: E. coli AR-0493; assay: MIC, CLSI broth microdilution, substance alone; format: cell-based; conditions: Escherichia coli, AR0493, read-out: MIC
# Experimental: A MDR E. coli strain AR-0493 (a.k.a., ATCC BAA-3170) was obtained from the CDC and FDA Antibiotic Resistance Bank and used for the initial screen. […] Considering the difficulties on the discovery of novel antimicrobial reagents against Gram-negative bacteria, we chose to screen the fragment-based library of 3,200 compounds from TimTec (Tampa, FL). […] The screen used a modified broth microdilution assay.
# These 10 compounds were tested for their MICs and minimum re-sensitizing concentrations (MRCs) in the presence colistin at 2 μg/mL in E. coli AR-0493. […] To evaluate their toxicity in mammalian cells, the present inventors treated human epithelial adenocarcinoma HeLa cells with each compound at a wide range of concentrations. […]
# as §3
# [11] = test system: P. aeruginosa AR-0768; assay: Colistin MIC in the absence or presence of RMA compound; format: cell-based
# Text: as §1
# [12] = test system: E. coli AR-0493; assay: Checkerboard broth microdilution assay with colistin; format: cell-based
# Experimental: FIG. 2. […] AR-0493. Data represent the mean OD (600 nm) in two biological replicates.
# To further confirm the synergistic effect of compound 3 and colistin, the checkerboard broth microdilution assay was performed (FIG. 2).
# as §3
# [13] = test system: E. coli AR-0493; assay: Minimum re-sensitizing concentration (MRC) in the presence of colistin; format: cell-based; conditions: in AR-0493
# Experimental: These 10 compounds were tested for their MICs and minimum re-sensitizing concentrations (MRCs) in the presence colistin at 2 μg/mL in E. coli AR-0493.
# The present inventors further conducted MRC screens of selected compounds from groups 2-5 in AR-0493. Compound were tested against AR-0493 with compound X+2 μg/mL Colistin.
# All compounds were tested for their respective minimum resensitizing concentrations (MRCs) for colistin against E. coli. AR0493, a MDR strain from CDC and FDA Antibiotic Resistance Bank. […] For the symmetrical bisanilino series, 7a-p, electron-donating alkyl and alkoxy groups (entries 7a-g, Table 5) at various positions of the phenyl rings were investigated. […] Three asymmetric bisanilino analogs (7q-s, Table 5) were synthesized based on the SARs of the monoanilino analogs 8a-p (vide infra).
# as §3
# [14] = test system: MDR Gram-negative bacteria; assay: MICs across a panel of MDR Gram-negative bacteria (summary statements); format: cell-based
# Text: as §1, §2, §3
# [15] = test system: HeLa cells; assay: in vitro; format: cell-based, human; conditions: GI50 in HeLa / MRC in AR-0493
# Experimental: (§4) These 10 compounds were tested for their MICs and minimum re-sensitizing concentrations (MRCs) in the presence colistin at 2 μg/mL in E. coli AR-0493. […] To evaluate their toxicity in mammalian cells, the present inventors treated human epithelial adenocarcinoma HeLa cells with each compound at a wide range of concentrations.
# as §2, §3
# [16] = in vitro; format: cell-based, human; conditions: human
# Experimental: as §4, §2, §3
# [17] = in the presence of 1 μg/mL of compound 3
# [18] = 1 μg/mL compound 3, almost all mcr-expressing Enterobacteriaceae strains of Table 2
compound,measurement,setting,value
Cc1cccc(Nc2nc3nonc3nc2Nc2cccc(C)c2)c1 [Compound 3],Folds of potentiation,[1]; 2 μg/mL of compound 3,16 folds
same,Colistin MIC (+3),[1]; [17],4 µg/mL
same,Colistin MIC (+3),[1]; in the presence of 2 μg/mL of compound 3,1 μg/mL and 1^c μg/mL
same,Folds of potentiation,[2]; 1 μg/mL of compound 3,16 folds
same,Colistin MIC (+3),[2]; [17],0.5 µg/mL
same,Folds of potentiation,[3]; 1 μg/mL of compound 3,16 folds
same,Colistin MIC (+3),[3]; [17],0.5 µg/mL
same,Folds of potentiation,[4]; 1 μg/mL of compound 3,32 folds
same,Colistin MIC (+3),[4]; [17],0.5 µg/mL
same,Folds of potentiation,[5]; 1 μg/mL of compound 3,16 folds
same,Colistin MIC (+3),[5]; [17],1 µg/mL
same,Folds of potentiation,[6]; 1 μg/mL of compound 3,32 folds
same,Colistin MIC (+3),[6]; [17],0.25 µg/mL
same,Folds of potentiation,[7]; 1 μg/mL of compound 3,16 folds
same,Colistin MIC (+3),[7]; [17],1 µg/mL
same,Colistin MIC (+3),[8],0.25 µg/mL
same,Folds of potentiation,[9]; 1 μg/mL of compound 3,16 folds
same,Colistin MIC (+3),[9]; [17],0.5 µg/mL
same,MIC,[10],> 64 µg/mL
same,Folds of potentiation,[11]; 1 μg/mL of compound 3,4 folds
same,Colistin MIC (+3),[11]; [17],4 µg/mL
same,fractional inhibitory concentration index (FICI),"[12]; compound and colistin, E. coli AR-0493",< 0.06
same,potentiation of colistin in checkerboard assay,"[12]; mean OD (600 nm), FIG. 2",dose-dependent potentiation of colistin
same,MRC,[13],0.5 µg/mL
same,Colistin MIC (+3),[14]; [18],0.5 to 1 µg/mL
same,folds of potentiation for colistin,[14]; [18],16 folds
same,MIC,"[14]; compound alone, all strains of Table 2, highest concentration tested",> 64 µg/mL
same,"SI (Selective Index), ratio of GI50 and MRC",[15],30
same,GI50 at 24 h,[16],15 µg/mL
